Reference: PubChem BioAssay AID256 (DTP/NCI, 2004)
Where “and” joins values, the source holds several entries; their conditions need not be identical. Equal values may be shown once. Inconclusive results and toxic doses are left out.

Test system: CD2F1 mice, L1210 leukemia ip, survival T/C
Assay: NCI In Vivo Anticancer Drug Screen. Data for tumor model L1210 Leukemia (intraperitoneal) in CD2F1 (CDF1) mice
Conditions: higher = longer survival
Outline: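 Activity against a transplanted murine tumor was judged by comparing the compound group with a vehicle group. The outcome in the treated animals was divided by that in the controls.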

[1] = endpoint: mean survival time, dose: 100.0 mg/kg/injection, schedule: Q04DX003 (ip), vehicle: saline with Tween-80
[2] = endpoint: mean survival time, dose: 200.0 mg/kg/injection, schedule: Q04DX003 (ip), vehicle: saline with Tween-80
[3] = endpoint: mean survival time, dose: 400.0 mg/kg/injection, schedule: Q04DX003 (ip), vehicle: saline with Tween-80
[4] = endpoint: mean survival time, dose: 100.0 mg/kg/injection, schedule: Q04DX002 (ip), vehicle: saline with Tween-80
[5] = endpoint: mean survival time, dose: 200.0 mg/kg/injection, schedule: Q04DX002 (ip), vehicle: saline with Tween-80
[6] = endpoint: mean survival time, dose: 400.0 mg/kg/injection, schedule: Q04DX002 (ip), vehicle: saline with Tween-80
[7] = endpoint: mean survival time, dose: 50.0 mg/kg/injection, schedule: Q01DX001 (ip), vehicle: saline with Tween-80
[8] = endpoint: mean survival time, dose: 100.0 mg/kg/injection, schedule: Q01DX009 (ip), vehicle: saline with Tween-80
[9] = endpoint: mean survival time, dose: 200.0 mg/kg/injection, schedule: Q01DX009 (ip), vehicle: saline with Tween-80
[10] = endpoint: mean survival time, dose: 400.0 mg/kg/injection, schedule: Q01DX009 (ip), vehicle: saline with Tween-80

NNc1ncnc2c(C3OC(CO)C(O)C3O)[nH]nc12 (centres undefined)
T/C (endpoint: mean survival time, dose: 150.0 mg/kg/injection, schedule: Q01DX009 (ip), vehicle: saline sonified): 155 % of control

CC(C)CCNCC(C)(C)OC(=O)c1ccc([N+](=O)[O-])cc1
T/C (endpoint: mean survival time, dose: 75.0 mg/kg/injection, schedule: Q01DX001 (ip), vehicle: saline): 97 % of control
T/C (endpoint: mean survival time, dose: 150.0 mg/kg/injection, schedule: Q01DX001 (ip), vehicle: saline): 101 % of control
T/C (endpoint: mean survival time, dose: 300.0 mg/kg/injection, schedule: Q01DX001 (ip), vehicle: saline): 102 % of control

CCN=C=NCCCN(C)C
T/C (endpoint: mean survival time, dose: 6.25 mg/kg/injection, schedule: Q01DX009 (ip), vehicle: saline): 105 % of control
T/C (endpoint: mean survival time, dose: 12.5 mg/kg/injection, schedule: Q01DX009 (ip), vehicle: saline): 110 % of control
T/C (endpoint: mean survival time, dose: 25.0 mg/kg/injection, schedule: Q01DX009 (ip), vehicle: saline): 100 % of control

N=C(N=c1cc(C(=O)NC(=N)NC(=N)Nc2ccc(Cl)cc2)n(C(=N)NC(=N)Nc2ccc(Cl)cc2)c(C(=O)NC(=N)NC(=N)Nc2ccc(Cl)cc2)c1)NC(=N)Nc1ccc(Cl)cc1
T/C [1]: 98 % of control
T/C [2]: 100 % of control
T/C [3]: 100 % of control

NC(=O)C(c1ccccc1)N1CCOCC1 (centres undefined)
T/C (endpoint: mean survival time, dose: 100.0 mg/kg/injection, schedule: Q01DX009 (ip), vehicle: saline): 100 % of control
T/C (endpoint: mean survival time, dose: 200.0 mg/kg/injection, schedule: Q01DX009 (ip), vehicle: saline): 101 % of control
T/C (endpoint: mean survival time, dose: 400.0 mg/kg/injection, schedule: Q01DX009 (ip), vehicle: saline): 105 % of control

N=c1ccn2c(n1)OC1C(O)C(CO)OC12 (centres undefined)
T/C (endpoint: mean survival time, dose: 37.5 mg/kg/injection, schedule: Q01DX005 (ip), vehicle: saline): 151 % of control
T/C (endpoint: mean survival time, dose: 53.0 mg/kg/injection, schedule: Q01DX009 (ip), vehicle: saline): 246 % of control
T/C (endpoint: mean survival time, dose: 75.0 mg/kg/injection, schedule: Q01DX005 (ip), vehicle: saline): 152 % of control and 173 % of control
T/C (endpoint: mean survival time, dose: 79.0 mg/kg/injection, schedule: Q01DX009 (ip), vehicle: saline): 247 % of control
T/C [4]: 151 % of control
T/C (endpoint: mean survival time, dose: 119.0 mg/kg/injection, schedule: Q01DX009 (ip), vehicle: saline): 331 % of control
T/C (endpoint: mean survival time, dose: 150.0 mg/kg/injection, schedule: Q01DX005 (ip), vehicle: saline): 160 % of control and 171 % of control
T/C (endpoint: mean survival time, dose: 178.0 mg/kg/injection, schedule: Q01DX009 (ip), vehicle: saline): 341 % of control
T/C [5]: 158 % of control
T/C (endpoint: mean survival time, dose: 300.0 mg/kg/injection, schedule: Q01DX005 (ip), vehicle: saline): 205 % of control and 221 % of control
T/C [6]: 205 % of control
T/C (endpoint: mean survival time, dose: 600.0 mg/kg/injection, schedule: Q01DX005 (ip), vehicle: saline): 271 % of control and 274 % of control
T/C (endpoint: median survival time, dose: 200.0 mg/kg/injection, schedule: Q01DX009 (ip), vehicle: water): 375 % of control
T/C (endpoint: median survival time, dose: 500.0 mg/kg/injection, schedule: Q01DX009 (ip), vehicle: water): 93 % of control
T/C (endpoint: median survival time, dose: 600.0 mg/kg/injection, schedule: Q01DX009 (ip), vehicle: water): 105 % of control

O=C1C2C3C=CC(O3)C2C(=O)N1Cc1ccncc1 (centres undefined)
T/C (endpoint: mean survival time, dose: 100.0 mg/kg/injection, schedule: Q01DX001 (ip), vehicle: saline): 108 % of control
T/C (endpoint: mean survival time, dose: 200.0 mg/kg/injection, schedule: Q01DX001 (ip), vehicle: saline): 100 % of control
T/C (endpoint: mean survival time, dose: 400.0 mg/kg/injection, schedule: Q01DX001 (ip), vehicle: saline): 101 % of control

CC1CN1CC(O)C(O)CN1CC1C (centres undefined)
T/C (endpoint: mean survival time, dose: 2.5 mg/kg/injection, schedule: Q01DX009 (ip), vehicle: saline): 115 % of control

CCCCCCCCCSCCOC(=S)N(C)C
T/C [4]: 93 % of control
T/C [5]: 93 % of control
T/C [6]: 93 % of control

CCOC(=O)c1ccc(NC(=O)N2CCC(CCCc3ccccc3)CC2)cc1
T/C [7]: 100 % of control
T/C (endpoint: mean survival time, dose: 100.0 mg/kg/injection, schedule: Q01DX001 (ip), vehicle: saline with Tween-80): 88 % of control and 98 % of control
T/C [8]: 87 % of control and 91 % of control
T/C [4]: 91 % of control and 95 % of control
T/C [1]: 98 % of control
T/C [9]: 87 % of control and 93 % of control
T/C [5]: 91 % of control
T/C [2]: 87 % of control
T/C (endpoint: mean survival time, dose: 400.0 mg/kg/injection, schedule: Q01DX001 (ip), vehicle: saline with Tween-80): 88 % of control and 94 % of control
T/C [10]: 93 % of control
T/C [6]: 90 % of control
T/C [3]: 90 % of control

CC1=Nc2cc(C)c(C)cc2N2C1=CC1=C(C(=O)c3cc4ccccc4cc3C1=O)C2C (centres undefined)
T/C (endpoint: mean survival time, dose: 25.0 mg/kg/injection, schedule: Q04DX003 (ip), vehicle: saline with Tween-80): 97 % of control
T/C (endpoint: mean survival time, dose: 50.0 mg/kg/injection, schedule: Q04DX003 (ip), vehicle: saline with Tween-80): 108 % of control
T/C (endpoint: mean survival time, dose: 100.0 mg/kg/injection, schedule: Q04DX003 (ip), vehicle: saline): 110 % of control
T/C (endpoint: mean survival time, dose: 200.0 mg/kg/injection, schedule: Q04DX003 (ip), vehicle: saline): 107 % of control

CCC(=O)c1ccc(NC(=O)Nc2ncccn2)cc1
T/C (endpoint: mean survival time, dose: 50.0 mg/kg/injection, schedule: Q01DX009 (ip), vehicle: Klucel (hydroxypropylcellulose) (HPC)): 91 % of control
T/C (endpoint: mean survival time, dose: 100.0 mg/kg/injection, schedule: Q01DX009 (ip), vehicle: Klucel (hydroxypropylcellulose) (HPC)): 94 % of control

O=S(=O)(O)O.[Fe]
T/C (endpoint: mean survival time, dose: 50.0 mg/kg/injection, schedule: Q01DX009 (ip), vehicle: saline sonified): 86 % of control
T/C [1]: 96 % of control
T/C [2]: 88 % of control

COc1ccc2ccccc2c1/C=N/N1CCCCC1
T/C [1]: 102 % of control
T/C [2]: 102 % of control
T/C [3]: 96 % of control

O=C(Nc1ccccc1)c1ccc(S(=O)(=O)F)cc1
T/C [8]: 101 % of control
T/C [9]: 106 % of control
T/C [10]: 106 % of control

C1=C(c2ccccc2)NN=C(c2ccccc2)C1c1ccccc1 (centres undefined)
T/C (endpoint: mean survival time, dose: 1.56 mg/kg/injection, schedule: Q01DX001 (ip), vehicle: saline with Tween-80): 103 % of control
T/C (endpoint: mean survival time, dose: 1.56 mg/kg/injection, schedule: Q01DX009 (ip), vehicle: saline with Tween-80): 98 % of control
T/C (endpoint: mean survival time, dose: 3.13 mg/kg/injection, schedule: Q01DX001 (ip), vehicle: saline with Tween-80): 101 % of control
T/C (endpoint: mean survival time, dose: 3.13 mg/kg/injection, schedule: Q01DX009 (ip), vehicle: saline with Tween-80): 102 % of control
T/C (endpoint: mean survival time, dose: 6.25 mg/kg/injection, schedule: Q01DX001 (ip), vehicle: saline with Tween-80): 94 % of control
T/C (endpoint: mean survival time, dose: 6.25 mg/kg/injection, schedule: Q01DX009 (ip), vehicle: saline with Tween-80): 98 % of control
T/C [7]: 87 % of control
